Test results reported in patent publication US20260042731A1, “(2,4-DICHLOROPHENOXY)ACETIC ACID ANALOGS” (CORTEVA AGRISCIENCE LLC, priority 2022, published 2026).
Where two headings read alike, the source gives them in different places.

Assays:
[1] = system: Amaranthus rudis (AMATA), tall water hemp; test: Postemergence herbicide evaluation, growth of Amaranthus rudis (AMATA); assay type: in vivo; conditions: Amaranthus tuberculatus, post-emergence, read-out: Ave. AMATA, percent reduction in plant size relative to the untreated control; for pest or weed control at 280 g/ha: 280 g ae/ha; for pest or weed control at 560 g/ha: 560 g ae/ha
[2] = system: Ambrosia artemisiifolia (AMBEL), common ragweed; test: Postemergence herbicide evaluation, growth of Ambrosia artemisiifolia (AMBEL); assay type: in vivo; conditions: Ambrosia artemisiifolia, post-emergence, read-out: AVE. AMBEL, percent reduction in plant size relative to the untreated control; for pest or weed control at 280 g/ha: 280 g ae/ha; for pest or weed control at 560 g/ha: 560 g ae/ha
[3] = system: Abutilon theophrasti (ABUTH), velvetleaf; test: Postemergence herbicide evaluation, growth of Abutilon theophrasti (ABUTH); assay type: in vivo; conditions: Abutilon theophrasti, post-emergence, read-out: AVE. ABUTH, percent reduction in plant size relative to the untreated control; for pest or weed control at 280 g/ha: 280 g ae/ha; for pest or weed control at 560 g/ha: 560 g ae/ha
[4] = system: Chenopodium album (CHEAL), common lambsquarters; test: Postemergence herbicide evaluation, growth of Chenopodium album (CHEAL); assay type: in vivo; conditions: Chenopodium album, post-emergence, read-out: Ave. CHEAL, percent reduction in plant size relative to the untreated control; for pest or weed control at 280 g/ha: 280 g ae/ha; for pest or weed control at 560 g/ha: 560 g ae/ha
[5] = system: glyphosate resistant Conyza canadensis (L.) (ERICA), horseweed; test: Postemergence herbicide evaluation, growth of Conyza canadensis (ERICA); assay type: in vivo; conditions: Erigeron canadensis, post-emergence, read-out: Ave. ERICA, percent reduction in plant size relative to the untreated control; for pest or weed control at 280 g/ha: 280 g ae/ha; for pest or weed control at 560 g/ha: 560 g ae/ha
[6] = Volatility of compounds measured by thermogravimetric analysis (TGA); assay type: physicochemical
[7] = system: weeds ABUTH, AMATA, AMBEL, CHEAL, ERICA; test: Postemergence herbicide evaluation, overall average % weed control (ABUTH, AMATA, AMBEL, CHEAL, ERICA); assay type: in vivo; conditions: post-emergence, read-out: Overall Ave % Weed Control; for pest or weed control at 280 g/ha: 280 g ae/ha; for pest or weed control at 560 g/ha: 560 g ae/ha
[8] = value marked *: decomposition of the material was observed

Compound | pest or weed control at 280 g/ha ([1]; 168 h, 7 DAA) | pest or weed control at 560 g/ha ([1]; 168 h, 7 DAA) | pest or weed control at 280 g/ha ([1]; 336 h, 14 DAA) | pest or weed control at 560 g/ha ([1]; 336 h, 14 DAA) | pest or weed control at 280 g/ha ([1]; 504 h, 21 DAA) | pest or weed control at 560 g/ha ([1]; 504 h, 21 DAA) | pest or weed control at 280 g/ha ([2]; 168 h, 7 DAA) | pest or weed control at 560 g/ha ([2]; 168 h, 7 DAA) | pest or weed control at 280 g/ha ([2]; 336 h, 14 DAA) | pest or weed control at 560 g/ha ([2]; 336 h, 14 DAA) | pest or weed control at 280 g/ha ([2]; 504 h, 21 DAA) | pest or weed control at 560 g/ha ([2]; 504 h, 21 DAA) | pest or weed control at 280 g/ha ([3]; 168 h, 7 DAA) | pest or weed control at 560 g/ha ([3]; 168 h, 7 DAA) | pest or weed control at 280 g/ha ([3]; 336 h, 14 DAA) | pest or weed control at 560 g/ha ([3]; 336 h, 14 DAA) | pest or weed control at 280 g/ha ([3]; 504 h, 21 DAA) | pest or weed control at 560 g/ha ([3]; 504 h, 21 DAA) | pest or weed control at 280 g/ha ([4]; 168 h, 7 DAA) | pest or weed control at 560 g/ha ([4]; 168 h, 7 DAA) | further results
C/C(=N\OC(=O)COc1ccc(Cl)cc1Cl)c1ccncc1 [Compound A27] | 75% | 85% | 90% | 96% | 62.5% | 77.5% | 80% | 90% | 75% | 82.5% | 100% | 100% | 60% | 82.5% | 75% | 98.5% | 92.5% | 100% | 77.5% | 85% | pest or weed control at 280 g/ha ([4]; 336 h, 14 DAA): 98%; pest or weed control at 560 g/ha ([4]; 336 h, 14 DAA): 94.5%; pest or weed control at 280 g/ha ([4]; 504 h, 21 DAA): 98.5%; pest or weed control at 560 g/ha ([4]; 504 h, 21 DAA): 100%; pest or weed control at 280 g/ha ([5]; 168 h, 7 DAA): 85%; pest or weed control at 560 g/ha ([5]; 168 h, 7 DAA): 82.5%; pest or weed control at 280 g/ha ([5]; 336 h, 14 DAA): 100%; pest or weed control at 560 g/ha ([5]; 336 h, 14 DAA): 100%; pest or weed control at 280 g/ha ([5]; 504 h, 21 DAA): 98.5%; pest or weed control at 560 g/ha ([5]; 504 h, 21 DAA): 97.5%; TGA Data (rate of weight loss, volatility) [6, 8]: 1.27* μg/min; pest or weed control at 280 g/ha ([7]; 168 h, 7 DAA): 75.5%; pest or weed control at 560 g/ha ([7]; 168 h, 7 DAA): 85%; pest or weed control at 280 g/ha ([7]; 336 h, 14 DAA): 87.6%; pest or weed control at 560 g/ha ([7]; 336 h, 14 DAA): 94.3%; pest or weed control at 280 g/ha ([7]; 504 h, 21 DAA): 90.4%; pest or weed control at 560 g/ha ([7]; 504 h, 21 DAA): 95%
C/C(=N\OC(=O)COc1ccc(Cl)cc1Cl)c1cccnc1 [Compound A26] | 65% | 94% | 85% | 90% | 67.5% | 92.5% | 80% | 77.5% | 72.5% | 90% | 100% | 100% | 62.5% | 67.5% | 72.5% | 92.5% | 96% | 100% | 72.5% | 80% | pest or weed control at 280 g/ha ([4]; 336 h, 14 DAA): 97.5%; pest or weed control at 560 g/ha ([4]; 336 h, 14 DAA): 95%; pest or weed control at 280 g/ha ([4]; 504 h, 21 DAA): 87.5%; pest or weed control at 560 g/ha ([4]; 504 h, 21 DAA): 95%; pest or weed control at 280 g/ha ([5]; 168 h, 7 DAA): 80%; pest or weed control at 560 g/ha ([5]; 168 h, 7 DAA): 82.5%; pest or weed control at 280 g/ha ([5]; 336 h, 14 DAA): 99%; pest or weed control at 560 g/ha ([5]; 336 h, 14 DAA): 99.5%; pest or weed control at 280 g/ha ([5]; 504 h, 21 DAA): 100%; pest or weed control at 560 g/ha ([5]; 504 h, 21 DAA): 100%; TGA Data (rate of weight loss, volatility) [6, 8]: 1.599* μg/min; pest or weed control at 280 g/ha ([7]; 168 h, 7 DAA): 72%; pest or weed control at 560 g/ha ([7]; 168 h, 7 DAA): 80.3%; pest or weed control at 280 g/ha ([7]; 336 h, 14 DAA): 85.3%; pest or weed control at 560 g/ha ([7]; 336 h, 14 DAA): 93.4%; pest or weed control at 280 g/ha ([7]; 504 h, 21 DAA): 90.2%; pest or weed control at 560 g/ha ([7]; 504 h, 21 DAA): 97.5%
N/C(=N\OC(=O)COc1ccc(Cl)cc1Cl)c1cccnc1 [Compound A4, N′-(2-(2,4-Dichlorophenoxy)acetoxy)nicotinimidamide] | 75% | 60% | 75% | 73% | 70% | 75% | 60% | 68% | 78% | 88% | 88% | 85% | 35% | 50% | 40% | 58% | 38% | 53% | 60% | 68% | pest or weed control at 280 g/ha ([4]; 336 h, 14 DAA): 63%; pest or weed control at 560 g/ha ([4]; 336 h, 14 DAA): 75%; pest or weed control at 280 g/ha ([4]; 504 h, 21 DAA): 63%; pest or weed control at 560 g/ha ([4]; 504 h, 21 DAA): 83%; pest or weed control at 280 g/ha ([5]; 168 h, 7 DAA): 60%; pest or weed control at 560 g/ha ([5]; 168 h, 7 DAA): 65%; pest or weed control at 280 g/ha ([5]; 336 h, 14 DAA): 83%; pest or weed control at 560 g/ha ([5]; 336 h, 14 DAA): 85%; pest or weed control at 280 g/ha ([5]; 504 h, 21 DAA): 88%; pest or weed control at 560 g/ha ([5]; 504 h, 21 DAA): 88%; TGA Data (rate of weight loss, volatility) [6]: 1 µg/min; pest or weed control at 280 g/ha ([7]; 168 h, 7 DAA): 58%; pest or weed control at 560 g/ha ([7]; 168 h, 7 DAA): 62%; pest or weed control at 280 g/ha ([7]; 336 h, 14 DAA): 68%; pest or weed control at 560 g/ha ([7]; 336 h, 14 DAA): 76%; pest or weed control at 280 g/ha ([7]; 504 h, 21 DAA): 69%; pest or weed control at 560 g/ha ([7]; 504 h, 21 DAA): 77%
